Where two headings read alike, the source gives them in different places.
Biological target: T1, β-catenin/Tcf protein-protein interaction (Homo sapiens, UniProt P35222)
T1 construct: Wild-type β-catenin (residues 138-781) were cloned into a pET-28b vector; 6×histidine (C); made in house; host or cells: E. coli BL21 DE3
T1 sequence (P35222 138-781): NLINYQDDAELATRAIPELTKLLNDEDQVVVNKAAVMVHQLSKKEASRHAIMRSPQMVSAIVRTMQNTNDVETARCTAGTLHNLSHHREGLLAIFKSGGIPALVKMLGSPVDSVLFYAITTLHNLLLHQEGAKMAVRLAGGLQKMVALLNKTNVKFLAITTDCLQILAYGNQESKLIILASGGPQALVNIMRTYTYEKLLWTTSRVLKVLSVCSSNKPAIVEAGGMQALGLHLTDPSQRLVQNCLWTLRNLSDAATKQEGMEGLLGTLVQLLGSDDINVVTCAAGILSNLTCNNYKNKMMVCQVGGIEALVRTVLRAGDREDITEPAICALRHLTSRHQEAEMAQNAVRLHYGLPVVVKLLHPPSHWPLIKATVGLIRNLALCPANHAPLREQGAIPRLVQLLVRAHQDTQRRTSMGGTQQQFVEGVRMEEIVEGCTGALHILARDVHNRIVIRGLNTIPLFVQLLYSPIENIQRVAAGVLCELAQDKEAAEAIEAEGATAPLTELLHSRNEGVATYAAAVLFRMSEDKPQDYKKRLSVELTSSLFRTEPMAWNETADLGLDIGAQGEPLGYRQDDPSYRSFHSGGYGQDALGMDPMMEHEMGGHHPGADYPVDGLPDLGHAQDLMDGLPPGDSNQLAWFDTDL
Assay: FP competitive inhibition assay
Type: binding
Procedure: Protein Expression and Purification. Wild-type β-catenin (residues 138-781) were cloned into a pET-28b vector carrying a C-terminal 6×histidine (Novagen) and transformed into E. coli BL21 DE3 (Novagen). Cells were cultured in LB medium with 30 μg/mL kanamycin until the OD600 was approximately 0.8, and then protein expression was induced with 400 μM of IPTG at 20° C. overnight. Cells were lysed by sonication. The proteins were purified by Ni-NTA affinity chromatography (30210, Qiagen) and dialyzed against a buffer containing 20 mM of Tris (pH 8.8), 100 mM NaCl, 10% glycerol, and 3 mM DTT. The purity of β-catenin was set to >95% as determined by SDS-PAGE gel analysis. Native non-denaturing gel electrophoresis experiment and the thermal-shift assay on an iCycler iQ Real Time Detection System (Bio-Rad) were performed for each purified protein. In the thermal shift assay, protein unfolding was evaluated through measuring the fluorescence changes of fluorescent dye Sypro Orange with purified β-catenin proteins. A temperature increment of 1° C./min was applied to monitor protein stability and detect protein aggregation. CD spectra were measured on a J-815 spectropolarimeter (Jasco). All spectra were recorded using a 1 mm path-length quartz cell. The CD spectra were averaged over three scans, and the wavelength was scanned from 260 to 190 nm in step of 1 nm. All spectra were recorded at room temperature, and the baseline was corrected by subtracting the CD spectra of a blank control containing all of the substances except protein. Samples were prepared at a concentration around 1-5 μM in a buffer of 10 mM potassium phosphate and 100 mM potassium fluoride at pH 7.0 to ensure that the transmission of light through the sample was not restricted. All proteins were stable, and no aggregation was observed under storage or assay conditions. Proteins were aliquoted and stored at −80° C. C-terminally fluorescein-labeled human Tcf4 (residues 7-51) was synthesized and HPLC purified with purity >95%. The structures were validated by LC/MS (liquid chromatography/mass spectrometry).
FP Assays. The procedures for the FP competitive inhibition assays have been described previously (Zhang, M.; Huang, Z.; Yu, B.; Ji, H. New homogeneous high-throughput assays for inhibitors of β-catenin/Tcf protein-protein interactions Anal. Biochem. 2012, 424, 57-63; Zhang, M.; Catrow, J. L.; Ji, H. High-throughput selectivity assays for small-molecule inhibitors of β-catenin/T-cell factor protein-protein interactions. ACS Med. Chem. Lett. 2013, 4, 306-311). Briefly, all of the tested compounds were prepared as 10 mM DMSO stocks. In the primary screen, the concentrations of the compounds and DMSO were set to 50 μM and 1% (v/v). Only the compounds which FP signal decreases were greater than 50% in the single-point β-catenin/Tcf assay were evaluated by counter screen. […] In the FP competitive inhibition assay, 10 nM human β-catenin and 2.5 nM of C-terminally fluorescein-labeled human Tcf4 were incubated in an assay buffer of 137 mM NaCl, 2.7 mM KCl, 10 mM Na2HPO4, 2 mM KH2PO4, 100 μg/mL of bovine γ-globulin, and 0.01% Triton-X100 for 15 min at 4° C. Bovine γ-globulin and Triton-X100 were included in the assay buffer to decrease the likelihood of compound acting by aggregate formation. Different concentrations of the tested compounds in the assay buffer were added to each test plate to make a final volume of 100 μL. Each assay plate was covered black and gently mixed on an orbital shaker at 4° C. for 1.5 h to reach equilibrium before the polarization values were read. The IC50 value was determined by nonlinear least-square analysis of GraphPad Prism 5.0. The Ki values were derived (Nikolovska-Coleska, Z.; Wang, R.; Fang, X.; Pan, H.; Tomita, Y.; Li, P.; Roller, P. P.; Krajewski, K.; Saito, N. G.; Stuckey, J. A.; Wang, S. Development and optimization of a binding assay for the XIAP BIR3 domain using fluorescence polarization. Anal. Biochem. 2004, 332, 261-273). […]

[1] = Assay 1, mean ± SD (n = 3), read-out: Ki ± SD, Assay 1
[2] = Assay 2, mean ± SD (n = 3), read-out: Ki ± SD, Assay 2

`O=C(O)CCn1c(CCc2nc3ccccc3s2)c(CCc2ccc(Cl)cc2)c2cc(C(=O)O)ccc21` [Compound 39, 2-(2-(benzo[d]thiazol-2-yl)ethyl)-1-(2-carboxyethyl)-3-(4-chlorophenethyl)-1H-indole-5-carboxylic acid] was tested, and the Ki [1] was 7.9 ± 1.5 µM and the Ki [2] was 1.4 ± 0.45 µM.
`O=C(O)c1ccc2c(c1)c(CCc1ccncc1)cn2CCc1nn[nH]n1` [Compound 16, 1-(2-(2H-tetrazol-5-yl)ethyl)-3-(2-(pyridin-4-yl)ethyl)-1H-indole-5-carboxylic acid] gave a Ki [1] of 18 ± 1.6 µM and a Ki [2] of 18 ± 0.67 µM.
Molecule `O=C(O)c1ccc2c(c1)c(CCc1cccc3ccccc13)cn2CCc1nn[nH]n1` [Compound 14, 1-(2-(2H-tetrazol-5-yl)ethyl)-3-(2-(naphthalen-1-yl)ethyl)-1H-indole-5-carboxylic acid] has a Ki [1] of 4.6 ± 0.36 µM and a Ki [2] of 3.5 ± 0.71 µM.
Molecule `COc1ccc2sc(CCc3c(CCc4ccc(Cl)cc4)c4cc(C(=O)NCC(O)CO)ccc4n3CCc3nn[nH]n3)nc2c1` (centres unmarked) [Compound 66, 1-(2-(2H-tetrazol-5-yl)ethyl)-3-(4-chlorophenethyl)-N-(2,3-dihydroxypropyl)-2-(2-(5-methoxybenzo[d]thiazol-2-yl)ethyl)-1H-indole-5-carboxamide] has a Ki [1] of 3.7 ± 0.19 µM and a Ki [2] of 32 ± 3.8 µM.
With `Cc1c(C)n(CCc2nn[nH]n2)c2ccccc12` [Compound 3, 1-(2-(2H-tetrazol-5-yl)ethyl)-2,3-dimethyl-1H-indole] the Ki [1] was 250 ± 1.2 µM.
Molecule `O=C(O)c1ccc2c(c1)c(CCC1CCCCC1)c(-c1ccsc1)n2CCc1nn[nH]n1` [Compound 85, 1-(2-(2H-tetrazol-5-yl)ethyl)-3-(2-cyclohexylethyl)-2-(thiophen-3-yl)-1H-indole-5-carboxylic acid] has a Ki [1] of 0.81 ± 0.052 µM, a Ki [2] of 8.2 ± 0.19 µM and a Ki (Assay 3, mean ± SD (n = 3), read-out: Ki ± SD, Assay 3) of 0.52 ± 0.048 µM.
In the case of `Cc1ccc(CCc2c(-c3ccncc3)n(CCc3nn[nH]n3)c3ccc(C(=O)O)cc23)cc1` [Compound 83, 1-(2-(2H-tetrazol-5-yl)ethyl)-3-(4-methylphenethyl)-2-(pyridin-4-yl)-1H-indole-5-carboxylic acid], the Ki [1] is reported as 20 ± 1.1 µM.
`Cc1ccc(CCc2c(-c3csc(C(F)F)c3)n(CCc3nn[nH]n3)c3ccc(C(=O)O)cc23)cc1` [Compound 80, 1-(2-(2H-tetrazol-5-yl)ethyl)-2-(5-(difluoromethyl)thiophen-3-yl)-3-(4-methylphenethyl)-1H-indole-5-carboxylic acid] gave a Ki [1] of 0.92 ± 0.1 µM and a Ki [2] of 1.9 ± 0.13 µM.
`COc1ccc2sc(CCc3c(CCc4ccc(Cl)cc4)c4cc(C(=O)NCC5CCCCC5)ccc4n3CCc3nn[nH]n3)nc2c1` [Compound 63, 1-(2-(2H-tetrazol-5-yl)ethyl)-3-(4-chlorophenethyl)-N-(cyclohexylmethyl)-2-(2-(5-methoxybenzo[d]thiazol-2-yl)ethyl)-1H-indole-5-carboxamide] showed a Ki [1] of 1.4 ± 0.2 µM and a Ki [2] of 4.3 ± 0.39 µM.
`O=C(O)CCn1c(CCc2nc3ccccc3s2)c(CCc2ccc(F)cc2)c2cc(C(=O)O)ccc21` [Compound 38, 2-(2-(benzo[d]thiazol-2-yl)ethyl)-1-(2-carboxyethyl)-3-(4-fluorophenethyl)-1H-indole-5-carboxylic acid] showed a Ki [1] of 19 ± 2.8 µM.
With `Cc1ccc(CCc2c(-c3csc4ccccc34)n(CCc3nn[nH]n3)c3ccc(C(=O)O)cc23)cc1` [Compound 79, 1-(2-(2H-tetrazol-5-yl)ethyl)-2-(benzo[b]thiophen-3-yl)-3-(4-methylphenethyl)-1H-indole-5-carboxylic acid] the Ki [1] was 0.57 ± 0.052 µM and the Ki [2] was 0.7 ± 0.06 µM.
`Cc1ccc(CCc2c(-c3cccnc3)n(CCc3nn[nH]n3)c3ccc(C(=O)O)cc23)cc1` [Compound 82, 1-(2-(2H-tetrazol-5-yl)ethyl)-3-(4-methylphenethyl)-2-(pyridin-3-yl)-1H-indole-5-carboxylic acid] was tested, and the Ki [1] was 8.4 ± 0.58 µM and the Ki [2] was 30 ± 1.9 µM.
For `O=C(O)c1ccc2c(c1)c(CCc1ccc(N3CCOCC3)cc1)cn2CCc1nn[nH]n1` [Compound 19, 1-(2-(2H-tetrazol-5-yl)ethyl)-3-(4-morpholinophenethyl)-1H-indole-5-carboxylic acid], the Ki [1] was > 51 µM.
Work on `O=C(NCc1ccon1)c1ccc2c(c1)c(CCC1CCCCC1)c(-c1ccsc1)n2CCc1nn[nH]n1` [Compound 95, 1-(2-(2H-tetrazol-5-yl)ethyl)-3-(2-cyclohexylethyl)-N-(isoxazol-3-ylmethyl)-2-(thiophen-3-yl)-1H-indole-5-carboxamide] yielded a Ki [1] of 3.1 ± 0.068 µM and a Ki [2] of 15 ± 2.8 µM.
Molecule `COc1ccc2nc(C#Cc3c(CCC4CCOCC4)c4cc(C(=O)O)ccc4n3CCc3nn[nH]n3)sc2c1` [Compound 74, 1-(2-(2H-tetrazol-5-yl)ethyl)-2-((6-methoxybenzo[d]thiazol-2-yl)ethynyl)-3-(2-(tetrahydro-2H-pyran-4-yl)ethyl)-1H-indole-5-carboxylic acid] has a Ki [1] of 4.2 ± 0.29 µM and a Ki [2] of 6 ± 0.39 µM.
`O=C(O)c1ccc2c(c1)c(CCc1ccc(Cl)c(Cl)c1)cn2CCc1nn[nH]n1` [Compound 12, 1-(2-(2H-tetrazol-5-yl)ethyl)-3-(3,4-dichlorophenethyl)-1H-indole-5-carboxylic acid] was tested, and the Ki [1] was 6.6 ± 0.44 µM and the Ki [2] was 41 ± 1.5 µM.
In the case of `O=C(O)CCn1c(CCc2nc3ccccc3s2)c(CCc2ccccc2)c2cc(C(=O)O)ccc21` [Compound 37, 2-(2-(Benzo[d]thiazol-2-yl)ethyl)-1-(2-carboxyethyl)-3-phenethyl-1H-indole-5 carboxylic acid], the Ki [1] is reported as 28 ± 6.8 µM.
`O=C(O)CCn1c(CCc2nc3ccccc3[nH]2)c(CCc2ccc(Cl)cc2)c2cc(C(=O)O)ccc21` [Compound 41, 2-(2-(1H-benzo[d]imidazol-2-yl)ethyl)-1-(2-carboxyethyl)-3-(4-chlorophenethyl)-1H-indole-5-carboxylic acid] was tested, and the Ki [1] was 36 ± 9.5 µM and the Ki [2] was 10 ± 2.2 µM.
Molecule `O=C(O)c1ccc2c(c1)c(CCc1ccc3ccccc3c1)c(CCc1nc3ccccc3s1)n2CCc1nn[nH]n1` [Compound 36, 1-(2-(2H-tetrazol-5-yl)ethyl)-2-(2-(benzo[d]thiazol-2-yl)ethyl)-3-(2-(naphthalen-2-yl)ethyl)-1H-indole-5-carboxylic acid] has a Ki [1] of 0.61 ± 0.065 µM.
Molecule `COc1ccc2nc(C#Cc3c(CCc4ccc5c(c4)OCCO5)c4cc(C(=O)O)ccc4n3CCc3nn[nH]n3)sc2c1` [Compound 75, 1-(2-(2H-tetrazol-5-yl)ethyl)-3-(2-(2,3-dihydrobenzo[b][1,4]dioxin-6-yl)ethyl)-2-((6-methoxybenzo[d]thiazol-2-yl)ethynyl)-1H-indole-5-carboxylic acid] has a Ki [1] of 1.8 ± 0.11 µM and a Ki [2] of 0.68 ± 0.059 µM.

— patent US11530186B2, “Inhibitors for the β-catenin / T-cell factor protein-protein interaction” (H. LEE MOFFITT CANCER CENTER AND RESEARCH INSTITUTE, INC., priority 2018, dated 2022)
